Measured values from ChEMBL document CHEMBL1151284, “Antimycobacterial scalarane-based sesterterpenes from the Red Sea sponge Hyrtios erecta” (2005).

System: Mycobacterium tuberculosis
Test: Antimycobacterial activity against Mycobacterium tuberculosis H37Rv ATCC 27294 at 6.25 uM by microplate alamar blue assay
Type: functional

Compound	inhibition at 6.25 µM
CC(=O)O[C@H]1C[C@H]2[C@]3(C)CC[C@H]4C(C)(C)CCC[C@]4(C)[C@H]3C[C@@H](O)[C@]2(C)[C@H]2OC(=O)C=C12	40%
CC(=O)O[C@H]1CC[C@]2(C)[C@H]3C[C@@H](O)[C@]4(C)C5=C(CC[C@H]4[C@]3(C)CC[C@H]2C1(C)C)COC5=O	13%
CC(=O)O[C@H]1C[C@H]2[C@]3(C)CC[C@H]4C(C)(C)CCC[C@]4(C)[C@H]3C[C@@H](O)[C@]2(C)C2=C1COC2=O [SESTERSTATIN 7]	63%
CC1(C)CCC[C@]2(C)[C@H]3C[C@@H](O)[C@]4(C)[C@H]5COC(=O)C5=CC[C@H]4[C@]3(C)CC[C@@H]12	16%
